From ChEMBL document CHEMBL1926641, “Farinamycin, a quinazoline from Streptomyces griseus” (J Nat Prod, 2011)
The source made the active and inactive calls. No cut-off for these calls is given here.

What was measured:
Penicillium chrysogenum = assay: Antifungal activity against Penicillium notatum JP 36 at <= 100 ug/ml by agar diffusion assay; type: functional, organism-based
Mycolicibacterium vaccae = assay: Antimicrobial activity against Mycobacterium vaccae IMET 10670 at <= 100 ug/ml by agar diffusion assay; type: functional, organism-based
[1] = tested on: Sporobolomyces salmonicolor; assay: Antimicrobial activity against Sporobolomyces salmonicolor SBUG 549 at <= 100 ug/ml by agar diffusion assay; type: functional, organism-based
Bacillus subtilis = assay: Antimicrobial activity against Bacillus subtilis ATCC 6633 at <= 100 ug/ml by agar diffusion assay; type: functional, organism-based
Candida albicans = assay: Antifungal activity against Candida albicans BMSY 212 at <= 100 ug/ml by agar diffusion assay; type: functional, organism-based
K562 = assay: Cytotoxicity against human K562 cells at <= 50 ug/ml; type: functional, cell-based
HUVEC = assay: Antiproliferative activity against human HUVEC cells at <= 50 ug/ml; type: cell-based
Staphylococcus aureus = assay: Antimicrobial activity against Staphylococcus aureus SG 511 at <= 100 ug/ml by agar diffusion assay; type: functional, organism-based
HeLa = assay: Cytotoxicity against human HeLa cells at <= 50 ug/ml; type: functional, cell-based
Escherichia coli = assay: Antimicrobial activity against Escherichia coli SG 458 at <= 100 ug/ml by agar diffusion assay; type: functional, organism-based
Pseudomonas aeruginosa = assay: Antimicrobial activity against Pseudomonas aeruginosa K 799/61 at <= 100 ug/ml by agar diffusion assay; type: functional, organism-based

SMILES: NC(=O)C1=C(N)[C@@H](O)[C@H](O)[C@@H](Nc2cc(-c3nc4c(O)cccc4c(=O)[nH]3)ccc2O)C1=O [FARINAMYCIN]
- Activity (Penicillium chrysogenum): inactive
- Activity (Mycolicibacterium vaccae): inactive
- Activity [1]: inactive
- Activity (Bacillus subtilis): inactive
- Activity (Candida albicans): inactive
- Activity (K562): inactive
- Activity (HUVEC): Non-toxic
- Activity (Staphylococcus aureus): inactive
- Activity (HeLa): inactive
- Activity (Escherichia coli): inactive
- Activity (Pseudomonas aeruginosa): inactive
